Results published in PubChem BioAssay AID316 (DTP/NCI, 2004).
“And” between values parts separate entries of the source, which are not always exact repeats. Equal entries are not always repeated. Inconclusive results and toxic doses are left out.

Tested on: P1534 leukemia ip, CD2F1 mice, survival T/C
Experiment: NCI In Vivo Anticancer Drug Screen. Data for tumor model P1534 Leukemia (intraperitoneal) in CD2F1 (CDF1) mice
Settings: higher = longer survival
Experimental: The antitumor activity of compounds was measured in mice bearing transplantable tumors. Survival or tumor size were measured and the results are expressed as the measurement made in the treated group (T) divided by the measurement made in the vehicle treated control group (C). The tumor model used in this assay is P1534 Leukemia (intraperitoneal) in CD2F1 (CDF1) mice

[1] = endpoint: mean survival time, dose: 3.13 mg/kg/injection, schedule: Q01DX010 (ip), vehicle: saline
[2] = endpoint: mean survival time, dose: 6.25 mg/kg/injection, schedule: Q01DX010 (ip), vehicle: saline
[3] = endpoint: mean survival time, dose: 12.5 mg/kg/injection, schedule: Q01DX010 (ip), vehicle: saline
[4] = endpoint: mean survival time, dose: 100.0 mg/kg/injection, schedule: Q01DX010 (ip), vehicle: water
[5] = endpoint: mean survival time, dose: 150.0 mg/kg/injection, schedule: Q01DX010 (ip), vehicle: water
[6] = endpoint: mean survival time, dose: 50.0 mg/kg/injection, schedule: Q01DX010 (ip), vehicle: saline
[7] = endpoint: mean survival time, dose: 100.0 mg/kg/injection, schedule: Q01DX010 (ip), vehicle: saline
[8] = endpoint: mean survival time, dose: 200.0 mg/kg/injection, schedule: Q01DX010 (ip), vehicle: saline
[9] = endpoint: mean survival time, dose: 25.0 mg/kg/injection, schedule: Q01DX010 (ip), vehicle: saline
[10] = endpoint: mean survival time, dose: 0.31 mg/kg/injection, schedule: Q01DX010 (ip), vehicle: saline
[11] = endpoint: mean survival time, dose: 0.63 mg/kg/injection, schedule: Q01DX010 (ip), vehicle: saline

Q: With NCCCCCCNCCCCCCN as the compound, how does the T/C (endpoint: mean survival time, dose: 1.56 mg/kg/injection, schedule: Q01DX010 (ip), vehicle: saline) read?
A: 100 % of control

Q: And the T/C [1]?
A: 100 % of control

Q: And the T/C [2]?
A: 100 % of control

Q: And the T/C [3]?
A: 92 % of control and 100 % of control

Q: How did the T/C (endpoint: mean survival time, dose: 2.5 mg/kg/injection, schedule: Q01DX010 (ip), vehicle: saline) turn out when O=C(NCCCCC(NC(=O)OCc1ccccc1)C(=O)NCCCNCCCCNCCCNC(=O)C(CCCCNC(=O)OCc1ccccc1)NC(=O)OCc1ccccc1)OCc1ccccc1 (centres undefined) was run?
A: 100 % of control

Q: What about the T/C (endpoint: mean survival time, dose: 5.0 mg/kg/injection, schedule: Q01DX010 (ip), vehicle: saline) of the same compound?
A: 100 % of control

Q: And the T/C (endpoint: mean survival time, dose: 10.0 mg/kg/injection, schedule: Q01DX010 (ip), vehicle: saline)?
A: 100 % of control

Q: With O=CN(O)CC(=O)O as the compound, how does the T/C (endpoint: mean survival time, dose: 15.6 mg/kg/injection, schedule: Q01DX010 (ip), vehicle: saline) read?
A: 100 % of control

Q: What about the T/C (endpoint: mean survival time, dose: 31.3 mg/kg/injection, schedule: Q01DX010 (ip), vehicle: saline) of the same compound?
A: 100 % of control

Q: And the T/C (endpoint: mean survival time, dose: 62.5 mg/kg/injection, schedule: Q01DX010 (ip), vehicle: saline)?
A: 100 % of control

Q: What about the T/C (endpoint: mean survival time, dose: 125.0 mg/kg/injection, schedule: Q01DX010 (ip), vehicle: saline) of the same compound?
A: 103 % of control

Q: Which T/C (endpoint: mean survival time, dose: 200.0 mg/kg/injection, schedule: Q01DX010 (oral), vehicle: other) does the source give for CC(C)=CCC1=C(O)c2ccccc2C(=O)C1=O here?
A: 102 % of control

Q: What about the T/C (endpoint: mean survival time, dose: 300.0 mg/kg/injection, schedule: Q01DX010 (oral), vehicle: other) of the same compound?
A: 115 % of control

Q: And the T/C (endpoint: mean survival time, dose: 400.0 mg/kg/injection, schedule: Q01DX010 (oral), vehicle: other)?
A: 112 % of control

Q: And the T/C (endpoint: mean survival time, dose: 600.0 mg/kg/injection, schedule: Q01DX010 (oral), vehicle: other)?
A: 103 % of control

Q: With O=C(O)c1cc(C(=O)O)[nH]n1 as the compound, how does the T/C [4] read?
A: 103 % of control

Q: And the T/C [5]?
A: 103 % of control

Q: With CCNc1nncs1 as the compound, how does the T/C (endpoint: mean survival time, dose: 8.0 mg/kg/injection, schedule: Q01DX010 (ip), vehicle: saline) read?
A: 100 % of control

Q: And the T/C (endpoint: mean survival time, dose: 16.0 mg/kg/injection, schedule: Q01DX010 (ip), vehicle: saline)?
A: 96 % of control

Q: What does the source list for CC(CCc1ccc(OC(=O)c2ccccc2)cc1)OC(=O)c1ccccc1 (centres undefined)?
A: T/C [6]: 96 % of control; T/C [7]: 89 % of control; T/C [8]: 86 % of control; T/C (endpoint: mean survival time, dose: 400.0 mg/kg/injection, schedule: Q01DX010 (ip), vehicle: saline): 89 % of control

Q: With c1ccc2ncccc2c1 as the compound, how does the T/C [9] read?
A: 100 % of control

Q: And the T/C [6]?
A: 100 % of control

Q: What about the T/C [7] of the same compound?
A: 96 % of control

Q: With O=C(NCCCCC(NC(=O)c1ccccc1)C(=O)NCCCCCCNCCCCCCNC(=O)C(CCCCNC(=O)c1ccccc1)NC(=O)c1ccccc1)c1ccccc1 (centres undefined) as the compound, how does the T/C [9] read?
A: 100 % of control

Q: And the T/C [6]?
A: 110 % of control

Q: And the T/C [7]?
A: 100 % of control

Q: And the T/C [8]?
A: 106 % of control

Q: Which results are given for Nc1nc(N)c2nc(CNc3ccc(C(=O)NC(CCC(=O)O)C(=O)O)cc3)cnc2n1 (centres undefined)?
A: T/C (endpoint: mean survival time, dose: 25.0 micrograms/kg/injection, schedule: Q01DX010 (ip), vehicle: other): 109 % of control; T/C (endpoint: mean survival time, dose: 50.0 micrograms/kg/injection, schedule: Q01DX010 (ip), vehicle: other): 113 % of control and 122 % of control; T/C (endpoint: mean survival time, dose: 100.0 micrograms/kg/injection, schedule: Q01DX010 (ip), vehicle: other): 159 % of control; T/C (endpoint: mean survival time, dose: 200.0 micrograms/kg/injection, schedule: Q01DX010 (ip), vehicle: other): 95 % of control and 100 % of control; T/C (endpoint: median survival time, dose: 0.05 mg/kg/injection, schedule: Q01DX009 (ip), vehicle: sodium bicarbonate): 164 % of control; T/C (endpoint: median survival time, dose: 0.1 mg/kg/injection, schedule: Q01DX009 (ip), vehicle: sodium bicarbonate): 93 % of control

Q: With N=C(N)SCc1c2ccccc2c(CSC(=N)N)c2ccccc12 as the compound, how does the T/C [10] read?
A: 117 % of control

Q: What about the T/C [11] of the same compound?
A: 121 % of control

Q: What does the source list for CCCNc1ncnc2c1cnn2C?
A: T/C [1]: 100 % of control; T/C [2]: 103 % of control and 100 % of control; T/C [3]: 103 % of control and 107 % of control; T/C [9]: 107 % of control and 100 % of control

Q: For CN(C)/N=N/c1nc[nH]c1C(N)=O, which T/C [2] is on record?
A: 100 % of control

Q: And the T/C [3]?
A: 107 % of control

Q: And the T/C [9]?
A: 103 % of control

Q: And the T/C [6]?
A: 107 % of control

Q: For Nc1nc(=S)c2ncn(C3OC(CO)C(O)C3O)c2[nH]1 (centres undefined), which T/C [10] is on record?
A: 103 % of control

Q: And the T/C [11]?
A: 103 % of control

Q: What about the T/C (endpoint: mean survival time, dose: 1.25 mg/kg/injection, schedule: Q01DX010 (ip), vehicle: saline) of the same compound?
A: 106 % of control

Q: How did the T/C (endpoint: mean survival time, dose: 118.0 mg/kg/injection, schedule: Q01DX010 (ip), vehicle: saline) turn out when NC(Cn1ccc(=O)c(O)c1)C(=O)O (centres undefined) was run?
A: 92 % of control

Q: What about the T/C (endpoint: mean survival time, dose: 178.0 mg/kg/injection, schedule: Q01DX010 (ip), vehicle: saline) of the same compound?
A: 92 % of control

Q: What about the T/C (endpoint: mean survival time, dose: 267.0 mg/kg/injection, schedule: Q01DX010 (ip), vehicle: saline) of the same compound?
A: 92 % of control

Q: With Cc1[nH]ncc1Br as the compound, how does the T/C [4] read?
A: 95 % of control

Q: What about the T/C [5] of the same compound?
A: 98 % of control
